Source: the NIST ThermoML archive (doi:10.1021/je0503204)

Conditions: Liquid; for speed of sound: Pulse-echo method

CCCCCCCl [1-chlorohexane]
Conditions | mass density [kg/m3] | speed of sound [m/s]
293.15 K, 100 kPa | 878.5 | 1219.1
293.15 K, 5000 kPa | 884.2 | 1240.5
293.15 K, 9910 kPa | 887 | 1264.5
293.15 K, 19720 kPa | 894.7 | 1310
293.15 K, 29530 kPa | 901.8 | 1352.6
293.15 K, 39340 kPa | 908.4 | 1392.6
293.15 K, 49150 kPa | 914.6 | 1430.1
293.15 K, 58960 kPa | 920.4 | 1465.7
293.15 K, 68770 kPa | 925.9 | 1499.3
293.15 K, 78580 kPa | 931.1 | 1531.5
293.15 K, 88390 kPa | 936 | 1562.3
293.15 K, 98200 kPa | 940.7 | 1591.9
293.15 K, 108000 kPa | 945.1 | 1620.6
293.15 K, 117800 kPa | 949.4 | 1648.2
293.15 K, 127600 kPa | 953.4 | 1675.2
293.15 K, 137400 kPa | 957.3 | 1701.5
293.15 K, 147200 kPa | 961.1 | 1727.1
293.15 K, 157100 kPa | 964.7 | 1752.2
293.15 K, 166900 kPa | 968.1 | 1776.7
293.15 K, 176700 kPa | 971.5 | 1800.6
293.15 K, 186500 kPa | 974.7 | 1824
293.15 K, 196300 kPa | 977.9 | 1846.5
313.15 K, 100 kPa | 859.4 | 1140.7
313.15 K, 5000 kPa | 865 | 1166.4
313.15 K, 9910 kPa | 869.8 | 1191.8
313.15 K, 19720 kPa | 878.3 | 1240.1
313.15 K, 29530 kPa | 886.2 | 1285.3
313.15 K, 39340 kPa | 893.4 | 1327.6
313.15 K, 49150 kPa | 900.1 | 1367.4
313.15 K, 58960 kPa | 906.4 | 1405
313.15 K, 68770 kPa | 912.3 | 1440.6
313.15 K, 78580 kPa | 917.9 | 1474.6
313.15 K, 88390 kPa | 923.1 | 1507
313.15 K, 98200 kPa | 928.1 | 1538
313.15 K, 108000 kPa | 932.8 | 1567.9
313.15 K, 117800 kPa | 937.3 | 1596.7
313.15 K, 127600 kPa | 941.6 | 1624.5
313.15 K, 137400 kPa | 945.7 | 1651.4
313.15 K, 147200 kPa | 949.7 | 1677.5
313.15 K, 157100 kPa | 953.5 | 1702.6
313.15 K, 166900 kPa | 957.1 | 1726.9
313.15 K, 176700 kPa | 960.6 | 1750.3
313.15 K, 186500 kPa | 964 | 1772.6
313.15 K, 196300 kPa | 967.2 | 1793.6
333.15 K, 100 kPa | 840.3 | 1068.8
333.15 K, 5000 kPa | 847.1 | 1097.1
333.15 K, 9910 kPa | 851.9 | 1124.4
333.15 K, 19720 kPa | 861.5 | 1176
333.15 K, 29530 kPa | 870.3 | 1224
333.15 K, 39340 kPa | 878.3 | 1268.8
333.15 K, 49150 kPa | 885.7 | 1310.8
333.15 K, 58960 kPa | 892.6 | 1350.4
333.15 K, 68770 kPa | 899 | 1387.7
333.15 K, 78580 kPa | 905 | 1423.2
333.15 K, 88390 kPa | 910.7 | 1457
333.15 K, 98200 kPa | 916 | 1489.4
333.15 K, 108000 kPa | 921.1 | 1520.4
333.15 K, 117800 kPa | 925.9 | 1550.3
333.15 K, 127600 kPa | 930.4 | 1579.1
333.15 K, 137400 kPa | 934.8 | 1607
333.15 K, 147200 kPa | 939 | 1633.9
333.15 K, 157100 kPa | 943 | 1659.9
333.15 K, 166900 kPa | 946.8 | 1684.9
333.15 K, 176700 kPa | 950.5 | 1708.9
333.15 K, 186500 kPa | 954 | 1731.8
333.15 K, 196300 kPa | 957.4 | 1753.5
353.15 K, 100 kPa | 821.3 | 995
353.15 K, 5000 kPa | 828.1 | 1026.2
353.15 K, 9910 kPa | 833.7 | 1055.4
353.15 K, 19720 kPa | 844.5 | 1110.7
353.15 K, 29530 kPa | 854.3 | 1162
353.15 K, 39340 kPa | 863.1 | 1209.8
353.15 K, 49150 kPa | 871.2 | 1254.5
353.15 K, 58960 kPa | 878.7 | 1296.3
353.15 K, 68770 kPa | 885.6 | 1335.8
353.15 K, 78580 kPa | 892.1 | 1373
353.15 K, 88390 kPa | 898.2 | 1408.3
353.15 K, 98200 kPa | 903.8 | 1441.9
353.15 K, 108000 kPa | 909.2 | 1474
353.15 K, 117800 kPa | 914.3 | 1504.7
353.15 K, 127600 kPa | 919.1 | 1534.3
353.15 K, 137400 kPa | 923.7 | 1562.7
353.15 K, 147200 kPa | 928.1 | 1590.1
353.15 K, 157100 kPa | 932.3 | 1616.4
353.15 K, 166900 kPa | 936.3 | 1641.8
353.15 K, 176700 kPa | 940.1 | 1666.1
353.15 K, 186500 kPa | 943.8 | 1689.4
353.15 K, 196300 kPa | 947.4 | 1711.4
373.15 K, 100 kPa | 802.2 | 922.9
373.15 K, 5000 kPa | 809.3 | 957
373.15 K, 9910 kPa | 815.2 | 989.6
373.15 K, 19720 kPa | 827.4 | 1050.4
373.15 K, 29530 kPa | 838.3 | 1105.8
373.15 K, 39340 kPa | 848 | 1156.5
373.15 K, 49150 kPa | 856.9 | 1203.2
373.15 K, 58960 kPa | 865 | 1246.3
373.15 K, 68770 kPa | 872.5 | 1286.9
373.15 K, 78580 kPa | 879.4 | 1324.8
373.15 K, 88390 kPa | 885.9 | 1360.8
373.15 K, 98200 kPa | 891.9 | 1395.1
373.15 K, 108000 kPa | 897.6 | 1427.9
373.15 K, 117800 kPa | 903 | 1459.6
373.15 K, 127600 kPa | 908.1 | 1490.1
373.15 K, 137400 kPa | 912.9 | 1519.6
373.15 K, 147200 kPa | 917.5 | 1548.1
373.15 K, 157100 kPa | 921.9 | 1575.5
373.15 K, 166900 kPa | 926.1 | 1601.7
373.15 K, 176700 kPa | 930.1 | 1626.5
373.15 K, 186500 kPa | 934 | 1649.5
373.15 K, 196300 kPa | 937.7 | 1670.6
393.15 K, 100 kPa | 780.7 | 853.3
393.15 K, 5000 kPa | 789.2 | 893.8
393.15 K, 9910 kPa | 796.7 | 928.6
393.15 K, 19720 kPa | 810.5 | 993.2
393.15 K, 29530 kPa | 822.6 | 1051.8
393.15 K, 39340 kPa | 833.3 | 1105.2
393.15 K, 49150 kPa | 843 | 1154.2
393.15 K, 58960 kPa | 851.8 | 1199.4
393.15 K, 68770 kPa | 859.8 | 1241.4
393.15 K, 78580 kPa | 867.2 | 1280.8
393.15 K, 88390 kPa | 874.1 | 1318
393.15 K, 98200 kPa | 880.6 | 1353.3
393.15 K, 108000 kPa | 886.6 | 1387.2
393.15 K, 117800 kPa | 892.3 | 1419.7
393.15 K, 127600 kPa | 897.6 | 1451.2
393.15 K, 137400 kPa | 902.7 | 1481.6
393.15 K, 147200 kPa | 907.5 | 1511.1
393.15 K, 157100 kPa | 912.1 | 1539.5
393.15 K, 166900 kPa | 916.4 | 1566.9
393.15 K, 176700 kPa | 920.6 | 1592.8
393.15 K, 186500 kPa | 924.6 | 1617.2
393.15 K, 196300 kPa | 928.4 | 1639.7
413.15 K, 100 kPa | 759.1 | 784
413.15 K, 5000 kPa | 769.6 | 829.4
413.15 K, 9910 kPa | 777.6 | 867.7
413.15 K, 19720 kPa | 793.3 | 938.1
413.15 K, 29530 kPa | 806.8 | 1001.1
413.15 K, 39340 kPa | 818.6 | 1057.7
413.15 K, 49150 kPa | 829.2 | 1109
413.15 K, 58960 kPa | 838.7 | 1155.8
413.15 K, 68770 kPa | 847.4 | 1198.9
413.15 K, 78580 kPa | 855.3 | 1239.1
413.15 K, 88390 kPa | 862.7 | 1276.9
413.15 K, 98200 kPa | 869.5 | 1312.8
413.15 K, 108000 kPa | 875.8 | 1347.4
413.15 K, 117800 kPa | 881.8 | 1380.6
413.15 K, 127600 kPa | 887.4 | 1413
413.15 K, 137400 kPa | 892.7 | 1444.5
413.15 K, 147200 kPa | 897.8 | 1475.2
413.15 K, 157100 kPa | 902.5 | 1504.9
413.15 K, 166900 kPa | 907.1 | 1533.7
413.15 K, 176700 kPa | 911.4 | 1560.9
413.15 K, 186500 kPa | 915.6 | 1586.4
413.15 K, 196300 kPa | 919.5 | 1609.7
